16 molecules from ChEMBL document CHEMBL1139989, “Aminosuberoyl hydroxamic acids (ASHAs): a potent new class of HDAC inhibitors” (Bioorg Med Chem Lett, 2007) can be followed below.

A word on the IC50: it is the midpoint of a concentration-inhibition curve.

Structures are written as SMILES.

The target in assay [1] is Histone deacetylase 1 (Homo sapiens, UniProt Q13547). Kind of assay: Inhibition of human HDAC 1.
A short description of assay [2]: Antiproliferative activity against mouse SC9 cells by MTS assay. Type of assay: functional, cell-based. A general note: Tetrazolium dyes change colour on reduction, which living cells bring about.
In assay [3] the test system is HCT-116. Briefly: Antitumor activity against human HCT116 cells. Type of assay: functional.
The species entered for assay [4] is Mus musculus. Briefly: Decrease in body weight in nude mouse. It is filed as functional. On the set-up: scale not given: the % may be the effect or the level left.

Chain of Histone deacetylase 1 (Q13547 whole entry): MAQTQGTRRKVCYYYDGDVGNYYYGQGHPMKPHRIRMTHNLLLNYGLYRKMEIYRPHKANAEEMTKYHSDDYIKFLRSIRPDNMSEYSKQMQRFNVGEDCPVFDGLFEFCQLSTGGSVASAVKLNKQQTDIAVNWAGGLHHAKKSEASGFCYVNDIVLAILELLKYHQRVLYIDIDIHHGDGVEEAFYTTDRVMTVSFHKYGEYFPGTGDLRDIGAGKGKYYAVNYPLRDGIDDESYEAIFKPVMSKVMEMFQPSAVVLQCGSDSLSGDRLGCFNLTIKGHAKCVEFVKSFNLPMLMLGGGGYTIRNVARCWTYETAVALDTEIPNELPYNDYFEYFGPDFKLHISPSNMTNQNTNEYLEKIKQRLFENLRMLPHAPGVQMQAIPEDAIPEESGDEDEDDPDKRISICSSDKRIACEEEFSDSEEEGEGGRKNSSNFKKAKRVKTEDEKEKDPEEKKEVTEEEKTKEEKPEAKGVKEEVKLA

`O=C(CCCCC[C@H](NC(=O)OCc1ccccc1)C(=O)Nc1cccc2cccnc12)NO`: the IC50 worked out at 14.5 nM in assay [1] and 39 nM in assay [2].

Take `O=C(CCCCC[C@H](NC(=O)c1ccccn1)C(=O)Nc1ccccc1)NO`: the figures for the IC50 in assay [1] and in assay [2] were 11.1 nM and 250 nM, respectively. In assay [3], the TGI entry is given as “>=50%”. The Activity in assay [4] is recorded as below 20%.

`O=C(CCCCC[C@H](NC(=O)c1ccc2ccccc2n1)C(=O)Nc1ccccc1)NO`: the IC50 in assay [1] is 10 nM; in assay [2], 33 nM.

Consider `O=C(CCCCC[C@H](NC(=O)c1ccccc1)C(=O)Nc1ccccc1)NO`, for which the IC50 was determined as 12.1 nM in assay [1] and 73 nM in assay [2].

Turning to `O=C(CCCCC[C@H](NC(=O)c1ccccc1)C(=O)Nc1cccc2cccnc12)NO`, the values for the IC50 in assay [1] and in assay [2] were 9.4 nM and 43 nM, respectively. For the same molecule, the TGI entry in assay [3] is on record as “>=50%”. Moreover, the Activity in assay [4] is on record as below 20%.

In the case of `O=C(CCCCC[C@H](NC(=O)c1ccc2ccccc2n1)C(=O)Nc1ccc2ncccc2c1)NO`, the midpoint of inhibition in assay [2], the IC50, lay at 107 nM.

Regarding `O=C(CCCCC[C@H](NC(=O)c1ccccn1)C(=O)Nc1ccc2ncccc2c1)NO`, the IC50 is 1.3 nM in assay [1] and 756 nM in assay [2].

In the case of `O=C(CCCCC[C@H](NC(=O)c1ccccn1)C(=O)NCc1ccccc1)NO`, the concentration for half-maximal inhibition (IC50) in assay [1] is 120 nM; in assay [2] it was 3420 nM.

For `O=C(CCCCC[C@H](NC(=O)c1ccccc1)C(=O)Nc1ccc2ncccc2c1)NO`, the IC50 in assay [1] amounted to 3.5 nM; in assay [2] it was 90 nM.

Take `O=C(CCCCC[C@H](NC(=O)c1ccccc1)C(=O)NCc1ccccc1)NO`: the IC50 is 93 nM in assay [1] and 1040 nM in assay [2].

As to `O=C(CCCCC[C@H](NC(=O)OCc1ccccc1)C(=O)Nc1ccccc1)NO`, the concentration for half-maximal inhibition (IC50) in assay [1] worked out at 18 nM; in assay [2] it was 102 nM.

For the molecule `O=C(CCCCC[C@H](NC(=O)c1ccc2ccccc2n1)C(=O)Nc1cccc2cccnc12)NO`, the half-inhibitory concentration (IC50) in assay [2] turned out to be 165 nM.

Take `O=C(CCCCC[C@H](NC(=O)c1ccccn1)C(=O)Nc1cccc2cccnc12)NO`: the concentration for half-maximal inhibition (IC50) in assay [1] was 4 nM; in assay [2], 367 nM.

Consider `O=C(CCCCC[C@H](NC(=O)c1ccc2ccccc2n1)C(=O)NCc1ccccc1)NO`, for which the values for the IC50 in assay [1] and in assay [2] were 51.3 nM and 374 nM, respectively.

For the molecule `O=C(CCCCC[C@H](NC(=O)OCc1ccccc1)C(=O)NCc1ccccc1)NO`, the concentration for half-maximal inhibition (IC50) in assay [1] was 48 nM; in assay [2] it was 412 nM.

Consider `O=C(CCCCC[C@H](NC(=O)OCc1ccccc1)C(=O)Nc1ccc2ncccc2c1)NO`, for which the IC50 in assay [1] was 7.7 nM; in assay [2], 110 nM.
